Assay results taken from article PMC2800054 (Journal of medicinal chemistry, 2008).
Converted amounts (≈) assume the structure as drawn.

Tests used:
[1] = molecular target: T1, MbtA (Mycobacterium tuberculosis, UniProt P71716); type: biochemical; settings: for fold loss of potency (KI^app) relative to 6 / fold increase in potency / binding affinity (KI^app) relative to 6: relative to parent compound 6
[2] = molecular target: T1, MbtA; settings: cited from earlier work; for ΔG^0 (free energy of binding): acyladenylate fragments
[3] = molecular target: T1, MbtA; type: binding; settings: ITC
[4] = cited from earlier work
[5] = cited from earlier work; remark: listed apart in the source
[6] = tested on: protein synthesis; settings: read-out: IC50 (inhibition of protein synthesis); in vitro protein translation assay
[7] = molecular target: cysteine adenylation domain in the multifunctional NRPS module known as HMWP2; settings: read-out: Ki^app; cited from earlier work
[8] = tested on: M. tuberculosis H37Rv; assay: M. tuberculosis H37Rv MIC assay; type: cell-based, Mycobacterium tuberculosis; settings: ratio of selectivity factors
[9] = tested on: M. tuberculosis H37Rv; settings: under the assay conditions; positive control; cited from earlier work
[10] = saturating salicylic acid, 298 K

T1 sequence (P71716 whole entry, the tested form may be a part): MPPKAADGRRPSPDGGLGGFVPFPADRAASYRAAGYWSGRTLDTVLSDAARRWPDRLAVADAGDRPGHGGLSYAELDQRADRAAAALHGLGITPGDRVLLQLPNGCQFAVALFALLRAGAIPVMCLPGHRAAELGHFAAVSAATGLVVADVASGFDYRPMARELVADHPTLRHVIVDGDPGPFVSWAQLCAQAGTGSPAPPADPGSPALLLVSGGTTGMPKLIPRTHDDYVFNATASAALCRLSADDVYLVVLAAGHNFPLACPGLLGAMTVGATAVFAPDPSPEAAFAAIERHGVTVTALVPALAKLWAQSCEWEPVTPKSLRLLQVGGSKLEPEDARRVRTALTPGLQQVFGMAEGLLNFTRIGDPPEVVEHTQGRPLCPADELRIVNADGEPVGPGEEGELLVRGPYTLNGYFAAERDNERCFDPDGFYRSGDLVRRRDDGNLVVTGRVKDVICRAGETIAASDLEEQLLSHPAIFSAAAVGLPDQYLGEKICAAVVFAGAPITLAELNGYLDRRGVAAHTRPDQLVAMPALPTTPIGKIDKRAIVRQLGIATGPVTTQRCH

In the case of `O=C([N-]S(=O)(=O)OC[C@H]1O[C@@H](n2cnc3c(NC4CCC4)ncnc32)[C@H](O)[C@@H]1O)c1ccccc1O.[Na+]` [Compound 17, N^6-Cyclobutyl-5′-O-[N-(2-hydroxybenzoyl)sulfamoyl]adenosine Sodium Salt], the “fold loss of potency (KI^app) relative to 6” value [1] is reported as 124 fold.

For `CC(C)CNc1ncnc2c1ncn2[C@@H]1O[C@H](COS(=O)(=O)[N-]C(=O)c2ccccc2O)[C@@H](O)[C@H]1O.[Na+]` [Compound 15, 5′-O-[N-(2-Hydroxybenzoyl)sulfamoyl]-N^6-isobutyladenosine Sodium Salt], the “fold loss of potency (KI^app) relative to 6” value [1] was 1140 fold.

With `CCN(CC)CC.Nc1nc(Nc2ccccc2)nc2c1ncn2[C@@H]1O[C@H](COS(=O)(=O)NC(=O)c2ccccc2O)[C@@H](O)[C@H]1O` [Compound 24, 2-Anilino-5′-O-[N-(2-hydroxybenzoyl)sulfamoyl]adenosine Triethylammonium Salt] the “fold increase in potency / binding affinity (KI^app) relative to 6” value [1] was 7 fold.

With `CCN(CC)CC.CN(C)c1ncnc2c1ncn2[C@@H]1O[C@H](COS(=O)(=O)NC(=O)c2ccccc2O)[C@@H](O)[C@H]1O` [Compound 10, 5′-O-[N-(2-Hydroxybenzoyl)sulfamoyl]-N^6,N^6′-dimethyladenosine Triethylammonium Salt] the “fold activity difference between N-6-dimethyl 10 and N-6-methyl 11” value ([1]; 10 versus 11) was ~ 238 fold and the “fold loss of potency (KI^app) relative to 6” value [1] was 58 fold.

For `O=C(O)c1ccccc1O` [salicylic acid], the “ΔG^0 (free energy of binding)” value [2] is given as -7.9 kcal/mol, the “KA(Sal)” value ([2]; association constant with MbtA) is given as 664000 M⁻¹ and the “ΔH(Sal)” value ([2]; enthalpy with MbtA) is given as -6.77 kcal/mol. The Kd ([2]; weak ligand for ITC displacement) was 1.63 ± 0.52 µM.

With `CCN(CC)CC.Nc1nc(-c2ccccc2)nc2c1ncn2[C@@H]1O[C@H](COS(=O)(=O)NC(=O)c2ccccc2O)[C@@H](O)[C@H]1O` [Compound 26, 5′-O-[N-(2-Hydroxybenzoyl)sulfamoyl]-2-phenyladenosine Triethylammonium Salt] the “ΔG^0” value [3] was -17.5 kcal/mol, the ΔH [3, 10] was -15.9 ± 0.6 kcal/mol and the “−TΔS” value [3, 10] was -1.6 ± 1.4 kcal/mol.

With `Nc1nc(-c2ccccc2-c2ccccc2)nc2c1ncn2[C@@H]1O[C@H](COS(=O)(=O)[N-]C(=O)c2ccccc2O)[C@@H](O)[C@H]1O.[Na+]` [Compound 27, 2-(Biphen-2-yl)-5′-O-[N-(2-hydroxybenzoyl)sulfamoyl]adenosine Sodium Salt] the “fold loss in potency compared to 26” value ([1]; 27 compared to 26) was 174 fold.

In the case of “5′-O-[N-(salicyl)sulfamoyl]adenosine [Compound 6]”, the “stability in human plasma” value [4] is listed as “stable”, the “stability in human liver microsomes” value [5] is listed as “stable” and the IC50 [6] is listed as over 100 µM.

For `CCN(CC)CC.Nc1ncnc2c1ccn2[C@@H]1O[C@H](COS(=O)(=O)NC(=O)c2ccccc2O)[C@@H](O)[C@H]1O` [Compound 7, 7-Deaza-5′-O-[N-(2-hydroxybenzoyl)sulfamoyl]adenosine Triethylammonium Salt], the “fold loss of potency (KI^app) relative to 6” value [1] was 4 fold.

With `CCN(CC)CC.O=C(NS(=O)(=O)OC[C@H]1O[C@@H](n2cnc3c(=O)[nH]cnc32)[C@H](O)[C@@H]1O)c1ccccc1O` [Compound 9, 5′-O-[N-(2-Hydroxybenzoyl)sulfamoyl]inosine Triethylammonium Salt] the “fold loss of potency (KI^app) relative to 6” value [1] was 121 fold.

For `Nc1ncnc2c1ncn2[C@@H]1O[C@H](COS(=O)(=O)NC(=O)[C@@H](N)CS)[C@@H](O)[C@H]1O` [cysteyl-AMS], the Ki [7] is listed as 0.24 µM.

With `CCN(CC)CC.Nc1nc(C#Cc2ccccc2)nc2c1ncn2[C@@H]1O[C@H](COS(=O)(=O)NC(=O)c2ccccc2O)[C@@H](O)[C@H]1O` [Compound 25, 5′-O-[N-(2-Hydroxybenzoyl)sulfamoyl]-2-(phenylethynyl)adenosine Triethylammonium Salt] the “fold increase in potency / binding affinity (KI^app) relative to 6” value [1] was 17 fold.

In the case of `Nc1ncnc2c1ncn2[C@@H]1O[C@H](COP(=O)(O)O)[C@@H](O)[C@H]1O` [AMP, adenosine monophosphate], the “ΔG^0 (free energy of binding)” value [2] is given as -5.0 kcal/mol.

In the case of `CCN(CC)CC.O=C(NS(=O)(=O)OC[C@H]1O[C@@H](n2cnc3c(NC4CC4)ncnc32)[C@H](O)[C@@H]1O)c1ccccc1O` [Compound 16, N^6-Cyclopropyl-5′-O-[N-(2-hydroxybenzoyl)sulfamoyl]adenosine Triethylammonium Salt], the “enhancement in selectivity S relative to Sal-AMS 6” value [8] is reported as 16 fold and the “fold increase in potency / binding affinity (KI^app) relative to 6” value [1] is reported as 3.5 fold.

With `CCN(CC)CC.Nc1nc(I)nc2c1ncn2[C@@H]1O[C@H](COS(=O)(=O)NC(=O)c2ccccc2O)[C@@H](O)[C@H]1O` [Compound 23, 5′-O-[N-(2-Hydroxybenzoyl)sulfamoyl]-2-iodoadenosine Triethylammonium Salt] the “fold increase in potency / binding affinity (KI^app) relative to 6” value [1] was 2 fold.

For `NNC(=O)c1ccncc1` [isoniazid], the MIC99 [9] is given as 0.18 µM (≈ 0.0247 µg/mL).
